Source: patent US6420435B1, “Method for treating gastrointestinal disorders” (priority 1999, dated 2002)

Legend:
[1] = tested on: inventor with long history of severe heartburn; experiment: Inventor's own use of limonene for severe heartburn; type: in vivo, human; conditions: 500 mg to 1000 mg every other day for 8-20 days
Procedure: Similar results were obtained on another adult taking 1000 mg every other day as well as on participants of studies discussed in more detail in Examples 1-2.

[2] = tested on: individuals taking limonene; experiment: Side effects of limonene having at least 98% purity; type: in vivo, human; conditions: limonene having at least a 98% purity
Text: Any conventional distillation method known by those of ordinary skill in the art for obtaining a highly purified form of d-limonene (about 98% pure) may be employed. Example 3 illustrates one preferred distillation method for removing the majority of contaminants.

[3] = In vitro studies on mechanism of action; conditions: suggested mechanism, coating the stomach wall
Text: The present invention is directed to a method for treating gastrointestinal disorders and comprises the oral administration of a therapeutically effective amount of limonene, preferably a purified form of d-limonene (i.e. at least 98%), to a person in need of such treatment. “Limonene” as used herein shall include both d-limonene and 1-limonene. […] The inventor has discovered that oral administration of a therapeutically effective amount of purified, food grade limonene (preferably at least 98% pure d-limonene), taken once daily or once every other day for 2 to 20 days, will alleviate or eliminate entirely the symptoms, both in terms of frequency and severity, of gastrointestinal disorders, such disorders ranging from mild/moderate heartburn and gastric indigestion to severe heartburn or gastro esophageal reflux disorder (GERD).

[4] = tested on: adults suffering from chronic heartburn or gastroesophagael reflux disorder (GERD); experiment: Initial studies of d-limonene treatment regimen in 19 adults with chronic heartburn or GERD, symptom ratings on a scale of 1-10; type: in vivo, human; conditions: for % of participants (every day regimen) with symptom rating = 1-2: 1 capsule 1000 mg every day; for % of participants (every other day regimen) with symptom rating = 1-2: 1 capsule 1000 mg every other day; for % of all participants with symptom rating = 1-2: 1000 mg d-limonene capsule every day or every other day; for % of all participants with symptom rating = 1-2 / percentage of participants achieving complete relief of symptoms (rating of 1): all participants
Procedure: Initial studies of the inventive treatment regimen were conducted at different times on 19 adults suffering from chronic heartburn or gastroesophagael reflux disorder (GERD). […] Thirty-seven (37%) of the total participants in these initial studies were male ranging in age from 42 to 73 years (average age=50 years), while sixty-three (63%) of the participants were female ranging in age from 34 to 70 years (average age=43). All of the participants discontinued using their respective treatments of choice (i.e. over-the-counter (OTC) and/or prescription medications) at least one day prior to beginning the inventive treatment regimen. Prior to beginning the treatment regimen, each participant was asked to rate the frequency and severity of his/her gastrointestinal disorder symptoms on a scale of 1-10. For “severity of symptoms,” 1 corresponded to complete relief of symptoms while 10 corresponded to severe, painful symptoms. A rating of 2 would correspond to mild symptoms. For “frequency of symptoms,” 1 corresponded to complete relief of symptoms while 10 corresponded to daily symptoms.
Eleven of the participants were administered 1 capsule of d-limonene every other day for 20 days. Five of the participants were administered 1 capsule of d-limonene every day for 16 to 20 days. Each capsule contained 1000 mg of d-limonene having a purity of from 98.5% to 99.3%.
FIG. 3 is a graph illustrating the percentage of all the participants (i.e. those undergoing the every other day regimen and every day regimen) having a severity rating of 1.

[5] = tested on: participants suffering from mild/moderate heartburn to severe heartburn/GERD; experiment: Preliminary double-blind placebo study in 13 participants; type: in vivo, human; conditions: 1 capsule with 1 gram of 98% d-limonene, every day/every other day regimens
Procedure: A preliminary double-blind placebo study was conducted on 13 participants suffering from mild/moderate heartburn to severe heartburn/GERD. Seven participants were administered the product and six were administered a placebo. In the “limonene” group (i.e. 1 capsule containing 1 gram of 98% d-limonene), two participants were administered 1 capsule every day for five days followed by 1 capsule every other day for five days. The remaining “limonene” group participants were administered 1 capsule every other day for 20 days. In the “placebo” group, three participants were administered 1 placebo capsule (i.e. gelatin capsule containing soybean oil) daily for five days, followed by 1 capsule every other day for 5 days. Two participants were administered 1 placebo capsule every other day for 20 days while one participant having severe heartburn was administered 1 placebo capsule twice a day for 5 days, followed by 1 capsule every day for 5 days, followed by 1 capsule as needed. As shown in Table 4 (and FIG. 4), a significant difference in results was obtained between the two groups ([…]).

[6] = tested on: persons suffering from diagnosed peptic ulcers; experiment: Treatment regimen in persons with diagnosed peptic ulcers; type: in vivo, human; conditions: 1,000 mg dose regimen, had to discontinue
Text: The present invention is particularly useful in alleviating the severity and frequency of gastrointestinal disorders. […] As used herein, “gastrointestinal disorder” shall mean mild/moderate heartburn, stomach acid indigestion, and severe heartburn/GERD.

Compound: C=C(C)[C@H]1CC=C(C)CC1 [limonene]
- severity and frequency of heartburn symptoms [1]: alleviated permanently
- side effects such as diarrhea and headache [2]: significantly reduced certain side effects
- effect on gastric acid [3]: neutralizing effect on gastric acid

Compound: C=C(C)[C@H]1CC=C(C)CC1 [d-limonene]
- % of participants (every day regimen) with symptom rating = 1-2 ([4]; Day 2): 14%
- % of participants (every other day regimen) with symptom rating = 1-2 ([4]; Day 2): 42%
- % of participants (every day regimen) with symptom rating = 1-2 ([4]; Day 4): 29%
- % of participants (every other day regimen) with symptom rating = 1-2 ([4]; Day 4): 42%
- % of all participants with symptom rating = 1-2 ([4]; Day 4): 32%
- percentage of participants with severity and frequency symptom ratings of 1-2 ([4]; Day 4, mild/moderate heartburn group): 55%
- percentage of participants with severity and frequency symptom ratings of 1-2 ([4]; Day 4, severe heartburn/GERD group): 0%
- % of participants (every day regimen) with symptom rating = 1-2 ([4]; Day 7): 57%
- % of participants (every other day regimen) with symptom rating = 1-2 ([4]; Day 7): 67%
- % of all participants with symptom rating = 1-2 ([4]; Day 7): 63%
- percentage of participants with severity and frequency symptom ratings of 1-2 ([4]; Day 7, mild/moderate heartburn group): 82%
- percentage of participants with severity and frequency symptom ratings of 1-2 ([4]; Day 7, severe heartburn/GERD group): 38%
- % of participants (every day regimen) with symptom rating = 1-2 ([4]; Day 9): 71%
- % of participants (every other day regimen) with symptom rating = 1-2 ([4]; Day 9): 75%
- % of all participants with symptom rating = 1-2 ([4]; Day 9): 74%
- percentage of participants with severity and frequency symptom ratings of 1-2 ([4]; Day 9, mild/moderate heartburn group): 82%
- percentage of participants with severity and frequency symptom ratings of 1-2 ([4]; Day 9, severe heartburn/GERD group): 38%
- percentage of participants with severity and frequency symptom ratings of 1-2 ([4]; Day 11, mild/moderate heartburn group): 91%
- percentage of participants with severity and frequency symptom ratings of 1-2 ([4]; Day 11, severe heartburn/GERD group): 72%
- % of participants (every day regimen) with symptom rating = 1-2 ([4]; Day 14): 86%
- % of all participants with symptom rating = 1-2 ([4]; Day 14): 89%
- percentage of participants with severity and frequency symptom ratings of 1-2 ([4]; Day 15, mild/moderate heartburn group): 91%
- percentage of participants with severity and frequency symptom ratings of 1-2 ([4]; Day 15, severe heartburn/GERD group): 88%
- percentage of participants achieving complete relief of symptoms (rating of 1) ([4]; day 2): about 20%
- percentage of participants achieving complete relief of symptoms (rating of 1) ([4]; day 14): 79%
- Product vs. Placebo result (percentage of participants, rating criterion not given) ([5]; Day 4): 29%
- Product vs. Placebo result (percentage of participants, rating criterion not given) ([5]; Day 7): 29%
- Product vs. Placebo result (percentage of participants, rating criterion not given) ([5]; Day 9): 71%
- Product vs. Placebo result (percentage of participants, rating criterion not given) ([5]; Day 14): 86%
- effect on severity of gastrointestinal symptoms in ulcer sufferers [6]: increase in the severity of gastrointestinal symptoms
